Assay results taken from US20080027143A1, “CHEMICAL FORMULATION FOR AN INSECTICIDE” (priority 2006, published 2008).

Legend:
Format in all cases: physicochemical
[1] = Storage stability of insecticide in solvent
Description: Stability data determined using analytical tools are given below:

[2] = Viscosity of solvent; conditions: at 25 deg. C.
Experimental: Referring again to Table 5, release rates of 8.0 wt %/wt % Transfluthrin in solvent are strongly correlated to viscosity of solvent. A solvent viscosity of less than or substantially equal to about 4 centistokes (cSt) at 25 Celsius is preferred as release rates stay above 5 mg/hr. Release rates lower than 5 mg/hr require much higher concentration of insecticide (higher insecticidal concentrations lead to thickening of the formula which may become unacceptable to delivery via piezoelectric delivery systems). A solvent viscosity of less than or substantially equal to about 3 cSt is more preferred as this enables the insecticidal concentration(s) to be kept below 10%.

[3] = Release rate and evaporation loss from piezoelectric diffusion device (Table 5); conditions: for Evaporation Loss: OFF switch position, average of 30 hours; for Evaporation Loss / Release Rate in High Setting: 3 repetitions; for Release Rate in High Setting: ON, high switch setting, average of 13 hours
Description: A highly permeable wick is used in the diffusion device 20 to ensure easy and effective transfer of the liquid from the tip of the wick to the orifice plate 110. In addition, the plug and wick holder 72 that is fitted to the reservoir 50 includes two small orifices to enable equilibration of pressure between the headspace in the reservoir and the surrounding atmosphere. These design factors lead to slow evaporation of the solvent regardless of where the device 20 is switched on or off. Solvents with high volatility tend to evaporate more rapidly leading to concentration of the insecticide in the reservoir 50. This increases the viscosity of the formula and slows down the overall release rates, leading to a negative impact on product performance. […] [table]

[4] = Release rates over 14 days for solvents with different boiling point ranges (Table 7)
Description: The effect of solvents with different boiling point ranges on release rates were studied and the results are show in the following Table 7: [table]

[5] = With 8.0 wt %/wt % Transfluthrin in Solvent

| Compound | Stability in hydrocarbon solvents (conclusion) [1] | Viscosity of Solvent [2] | Evaporation Loss as Percent of Release Rate [3, 5] | Evaporation Loss [3, 5] | Release Rate in High Setting [3, 5] | Evaporation Loss as Percent of Release Rate ([3]; With Pure Solvent) | Evaporation Loss ([3]; With Pure Solvent) | Release Rate in High Setting ([3]; With Pure Solvent) | Residual Liquid ([4]; after the 14 days) | Average Release Rate during 1–5 days ([4]; high setting, average period of 7.1 hours per day, days 1–5) | Average Release Rate during 6–10 days ([4]; high setting, average period of 7.1 hours per day, days 6–10) | Average Release Rate during 11–14 days ([4]; high setting, average period of 7.1 hours per day, days 11–14) |
| --- | --- | --- | --- | --- | --- | --- | --- | --- | --- | --- | --- | --- |
| C/C=C/C1C(C(=O)OCc2c(F)c(F)c(COC)c(F)c2F)C1(C)C (stereo not shown) [Metofluthrin] | stable | – | – | – | – | – | – | – | – | – | – | – |
| CC1(C)[C@H](C=C(Cl)Cl)[C@H]1C(=O)OCc1c(F)c(F)cc(F)c1F [Transfluthrin] | stable | – | – | – | – | – | – | – | – | – | – | – |
| CCCOCC(C)O (stereo not shown) [DOWANOL ® PnP] | – | 2.7 cSt | 73.1% | 16.05 mg/h | 22.0 mg/h | 38.4% | 9.73 mg/h | 25.3 mg/h | Zero | 19.1 mg/h | 18.0 mg/h | 10.0 mg/h |
